# Results published in ChEMBL document CHEMBL4414648, “Novel Benzohydroxamate-Based Potent and Selective Histone Deacetylase 6 (HDAC6) Inhibitors Bearing a Pentaheterocyclic Scaffold: Design, Synthesis, and Biological Evaluation” (J Med Chem, 2019).
# Activity calls are given as the source filed them. The calls are words filed in the database; no cut-off is given here.
# Columns and labels:
# Histone deacetylase = experiment: Inhibition of HDAC in human 697 cells assessed as increase in H3 acetylation at 1000 nM incubated for 16 hrs by ELISA; assay type: cell-based; details: human, 697, 16 h, 1 µM
# [1] = Selectivity ratio of IC50 for C-terminal GST-tagged human HDAC5 to IC50 for human N-terminal GST-tagged HDAC6 expressed in baculovirus infected sf9 insect cells
# [2] = Selectivity ratio of IC50 for C-terminal His-tagged human HDAC8 expressed in baculovirus infected sf9 insect cells to IC50 for human N-terminal GST-tagged HDAC6 expressed in baculovirus infected sf9 insect cells
# [3] = Stability in human plasma assessed as parent compound remaining at 100 uM after 4 hrs by LC-MS/MS analysis; assay type: ADME, cell-free; details: read-out: Stability
# Mus musculus [4] = experiment: In vivo inhibition of HDAC in C57BL/6 mouse assessed as increase in acetylated-histone H3 level in spleen nuclear protein extracts at 30 mg/kg, ip measured after 60 mins by sandwich ELISA relative to control; assay type: organism-based; details: 1 h
# Mus musculus [5] = experiment: Ratio of in vivo inhibition of HDAC6 in C57BL/6 mouse assessed as fold increase in acetylated tubulin level in spleen cytosolic protein extract to in vivo inhibition of HDAC in C57BL/6 mouse assessed as fold increase in acetylated-histone H3 level in spleen nuclear protein extracts
# Mus musculus [6] = experiment: In vivo inhibition of HDAC6 in C57BL/6 mouse assessed as increase in acetylated tubulin level in spleen cytosolic protein extract at 30 mg/kg, ip measured after 24 hrs by ELISA; assay type: functional, organism-based
# 697 = experiment: Cytotoxicity against human 697 cells after 48 hrs by CellTiter 96 aqueous one solution assay; assay type: cell-based; details: Homo sapiens, 697, 48 h
# [7] = Toxicity in C57BL/6 mouse assessed as effect on body weight at 10 mg/kg, ip administered for 5 days/week for two cycles and measured every other day relative to control; assay type: organism-based; details: in vivo, 120 h
# [8] = Toxicity in C57BL/6 mouse assessed as effect on WBC level at 10 mg/kg, ip administered for 5 days/week for two cycles and measured 60 mins post last dose by beckman coulter counting method relative to control; assay type: organism-based; details: in vivo, 1 h
# [9] = Toxicity in C57BL/6 mouse assessed as induction of piloerection up to 50 mg/kg, ip administered for 5 days/week for two cycles and measured daily starting from day 1; assay type: organism-based; details: in vivo, 120 h
# [10] = Toxicity in C57BL/6 mouse assessed as effect on spasms up to 50 mg/kg, ip administered for 5 days/week for two cycles and measured daily starting from day 1; assay type: organism-based; details: in vivo, 120 h
# [11] = Toxicity in C57BL/6 mouse assessed as effect on stool up to 50 mg/kg, ip administered for 5 days/week for two cycles and measured daily starting from day 1; assay type: organism-based; details: in vivo, 120 h
# [12] = Toxicity in C57BL/6 mouse assessed as induction of leukopenia up to 50 mg/kg, ip administered for 5 days/week for two cycles; assay type: organism-based; details: in vivo, 120 h
# [13] = Toxicity in ip dosed C57BL/6 mouse administered for 5 days/week for two cycles; assay type: organism-based; details: in vivo
# [14] = Total clearance in CD-1 mouse at […], iv measured within 6 hrs by LC-MS/MS analysis; assay type: ADME, organism-based; details: in vivo
# [15] = Apparent volume of distribution at steady state in CD-1 mouse at […], iv measured within 6 hrs by LC-MS/MS analysis; assay type: ADME, organism-based; details: in vivo, read-out: Vdss(app)
# [16] = Cmax in CD-1 mouse at 5.2 mg/kg, po measured within 6 hrs by LC-MS/MS analysis; assay type: ADME, organism-based; design: dose 5.2 mg/kg, route oral; details: in vivo
# [17] = Total AUC in CD-1 mouse at 5.2 mg/kg, po measured within 6 hrs by LC-MS/MS analysis; assay type: ADME, organism-based; design: dose 5.2 mg/kg, route oral, time AUCmax; details: in vivo
# [18] = target: T1, Protein deacetylase HDAC6 (Mus musculus) (UniProt Q9Z2V5); experiment: Inhibition of HDAC6 in C57BL/6 mouse regulatory T cells assessed as increase in Treg-mediated suppression of anti-CD3 induced CD4+ cell division at 500 nM after 72 hrs in presence mitomycin-treated APC by CFSE dye based flow cytometric assay relative to control
# T1 sequence (whole entry): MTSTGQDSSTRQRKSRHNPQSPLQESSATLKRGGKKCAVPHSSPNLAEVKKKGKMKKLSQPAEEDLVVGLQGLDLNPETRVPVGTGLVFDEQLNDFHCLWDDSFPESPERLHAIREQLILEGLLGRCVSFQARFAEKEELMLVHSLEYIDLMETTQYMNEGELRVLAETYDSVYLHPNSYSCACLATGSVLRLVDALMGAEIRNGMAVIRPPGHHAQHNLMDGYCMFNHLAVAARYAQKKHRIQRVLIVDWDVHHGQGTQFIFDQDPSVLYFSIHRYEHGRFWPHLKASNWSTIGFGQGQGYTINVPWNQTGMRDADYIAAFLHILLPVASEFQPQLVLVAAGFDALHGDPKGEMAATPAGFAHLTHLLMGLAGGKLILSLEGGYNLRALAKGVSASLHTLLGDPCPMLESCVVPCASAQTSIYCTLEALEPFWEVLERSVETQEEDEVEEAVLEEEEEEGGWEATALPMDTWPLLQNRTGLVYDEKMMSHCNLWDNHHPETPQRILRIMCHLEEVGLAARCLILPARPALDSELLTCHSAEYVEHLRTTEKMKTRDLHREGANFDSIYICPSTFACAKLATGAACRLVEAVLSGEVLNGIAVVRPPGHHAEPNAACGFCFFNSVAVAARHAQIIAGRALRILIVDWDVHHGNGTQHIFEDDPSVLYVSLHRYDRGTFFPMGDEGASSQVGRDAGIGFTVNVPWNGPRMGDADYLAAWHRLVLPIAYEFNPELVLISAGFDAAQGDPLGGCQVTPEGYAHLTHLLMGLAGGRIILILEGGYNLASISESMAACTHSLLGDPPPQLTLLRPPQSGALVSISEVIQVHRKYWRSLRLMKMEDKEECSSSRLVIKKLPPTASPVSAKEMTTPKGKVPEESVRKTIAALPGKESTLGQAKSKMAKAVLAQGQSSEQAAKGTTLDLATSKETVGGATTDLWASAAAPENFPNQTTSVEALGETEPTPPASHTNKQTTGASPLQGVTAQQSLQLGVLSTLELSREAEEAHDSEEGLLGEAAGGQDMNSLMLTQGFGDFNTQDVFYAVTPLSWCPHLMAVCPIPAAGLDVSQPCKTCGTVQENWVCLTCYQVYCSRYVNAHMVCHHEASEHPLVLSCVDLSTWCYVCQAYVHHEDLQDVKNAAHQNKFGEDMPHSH
# [19] = Drug level in C57BL/6 mouse plasma at 30 mg/kg, ip measured after 24 hrs; assay type: ADME, organism-based; details: in vivo, BLD = below limit of detection
# [20] = Toxicity in C57BL/6 mouse assessed as effect on body temperature up to 50 mg/kg, ip administered for 5 days/week for two cycles and measured daily starting from day 1; assay type: organism-based; details: in vivo, 120 h
# Cytochrome P450 3A4 = Cytochrome P450 3A4 (Homo sapiens, UniProt P08684)
# Sequence of Cytochrome P450 3A4 (P08684 whole entry): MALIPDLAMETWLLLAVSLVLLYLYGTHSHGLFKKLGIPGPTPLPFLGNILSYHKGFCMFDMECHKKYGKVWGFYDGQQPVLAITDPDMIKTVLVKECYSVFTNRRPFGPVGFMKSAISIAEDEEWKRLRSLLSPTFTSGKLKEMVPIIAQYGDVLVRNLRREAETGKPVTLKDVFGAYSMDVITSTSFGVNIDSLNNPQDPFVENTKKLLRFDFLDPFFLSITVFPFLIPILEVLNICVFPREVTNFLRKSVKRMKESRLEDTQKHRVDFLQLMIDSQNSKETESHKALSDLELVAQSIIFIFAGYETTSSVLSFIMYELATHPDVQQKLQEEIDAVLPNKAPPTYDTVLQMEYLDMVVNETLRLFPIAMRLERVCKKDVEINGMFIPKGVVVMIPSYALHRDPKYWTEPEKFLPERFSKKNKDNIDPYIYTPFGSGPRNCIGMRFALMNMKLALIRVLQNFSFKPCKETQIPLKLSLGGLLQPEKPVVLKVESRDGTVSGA
# Description: Inhibition of CYP3A4 in human liver microsomes using testosterone as substrate
compound,measurement,setting,value
Cn1c(Sc2ccc(C(=O)NO)cc2)nnc1-c1cccs1,inhibition (INH),Histone deacetylase,Active
same,Ratio IC50,[1],326
same,Ratio IC50,[2],62
same,"remaining at 4 h, 100 µM",[3],100%
same,fold change (FC),Mus musculus [4],3
same,Ratio,Mus musculus [5],3.5
same,inhibition,Mus musculus [6],Active
same,IC50,697,> 1 µM
same,Activity,[7],2.8%
same,Activity,[8],1%
same,Activity,[9],Non-Toxic
same,Activity,[10],Non-Toxic
same,Activity,[11],Non-Toxic
same,Activity,[12],Toxic
same,MTD at 120 h,[13],< 30 mg/kg
same,clearance at 6 h,[14],182 mL/min/kg
same,Vd at 6 h,[15],5.4 L/kg
same,Cmax,[16],144 ng/mL
same,AUC at 6 h,[17],123 ng·h/mL
same,fold change (FC),[18],> 1.5
same,Drug uptake,[19],Bld
same,Activity,[20],Non-Toxic
same,IC50,Cytochrome P450 3A4,26.6 µM
